Assay: Anti-oxidizing property: lipid peroxide elimination rate (Determiner LPO, cumene hydroperoxide)
Format: biochemical
Settings: concentration of 0.014%
Protocol: Purified water was added to 0.1 g of microbial melanin, synthetic melanin or sepia melanin and 0.1 g of sodium hydroxide to prepare 100 ml of solution, and the pH was adjusted to 7 with hydrochloric acid.
To 0.1 g of dl-α-tocopherol was added ethanol to prepare 100 ml of solution.
To 0.1 g of ascorbic acid was added purified water to prepare 100 ml of solution.
To 5.02 mg of an 80% cumene hydroperoxide (hereinafter abbreviated to CPO) solution was added purified water to prepare 100 ml of solution (264 nmol/ml).
The microbial melanin solution, the ascorbic acid solution, the dl-α-tocopherol solution, the synthetic melanin solution or the sepia melanin solution was added to a system in which CPO was reacted with a methylene blue derivative in the presence of hemoglobin as a catalyst, using Determiner LPO (product of Kyowa Medex Co., Ltd.) as a reaction reagent, thereby producing an equimolar amount of methylene blue which developed the color of the system. The anti-oxidizing property of the microbial melanin, ascorbic acid, dl-α-tocopherol, the synthetic melanin and the sepia melanin was determined on the basis of the degree of inhibition of the production of methylene blue. […]
In the equation, As indicates the absorbance of the test sample, Astd the absorbance of the standard sample, and AB the absorbance of the blank test sample. […]

SMILES | Lipid peroxide elimination rate
O=C1O[C@H]([C@@H](O)CO)C(O)=C1O [Ascorbic acid, ascorbic acid] | 97.4%
Cc1c(C)c2c(c(C)c1O)CCC(C)(CCCC(C)CCCC(C)CCCC(C)C)O2 (racemic) [dl-α-tocopherol] | 72.4%

Source: patent US5380359A, “Cosmetics based on naturally derived melanin-coated pigments” (Kyowa Hakko Kogyo Co., Ltd., priority 1992, dated 1995)
